Reference: paper PMC4900891 (Biochemistry, 2016)
Residue numbers refer to the chain shown, from its start. Values joined by “and” are separate entries in the source; they are usually repeats but may differ in a detail not shown here. Equal entries are not always repeated. One block for each molecule: values may come before it. Square brackets hold non-standard residues; d marks the D form. Peptide text beside a SMILES is read from it. pY = N[C@@H](Cc1ccc(OP(=O)(O)O)cc1)C(=O)O

Assays:
[1] = molecular target: T1, SHP2^WT (Homo sapiens, UniProt Q06124); details: substrate DiFMUP, basal (no peptide); 2.5 nM enzyme, Hepes pH 7.2
T1 sequence (Q06124 1-525): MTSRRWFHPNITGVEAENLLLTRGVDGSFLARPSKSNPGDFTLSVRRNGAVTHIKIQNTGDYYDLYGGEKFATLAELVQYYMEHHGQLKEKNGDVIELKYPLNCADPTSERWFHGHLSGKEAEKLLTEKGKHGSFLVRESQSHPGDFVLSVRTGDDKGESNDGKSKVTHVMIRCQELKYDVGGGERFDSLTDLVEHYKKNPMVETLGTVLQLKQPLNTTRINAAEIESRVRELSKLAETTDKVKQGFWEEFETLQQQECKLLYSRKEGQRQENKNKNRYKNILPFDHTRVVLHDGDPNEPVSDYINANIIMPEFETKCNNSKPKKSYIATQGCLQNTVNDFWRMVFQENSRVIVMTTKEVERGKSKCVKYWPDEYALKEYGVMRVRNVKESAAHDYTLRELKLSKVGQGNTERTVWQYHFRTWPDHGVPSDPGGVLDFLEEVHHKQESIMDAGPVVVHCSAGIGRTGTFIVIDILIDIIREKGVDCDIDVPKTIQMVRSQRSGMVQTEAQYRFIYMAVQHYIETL

[2] = molecular target: T2, SHP2^E76Q (Homo sapiens, UniProt Q06124, E76Q); experiment: Basal DiFMUP dephosphorylation kinetics, E76Q; format: biochemical; details: substrate DiFMUP, basal (no peptide); 0.05 nM enzyme, Hepes pH 7.2
T2 sequence (Q06124 1-525 E76Q): T1 sequence (Q06124 1-525) with E76Q

[3] = tested on: SHP2^PTP; details: substrate DiFMUP, basal (no peptide); 0.00625 nM enzyme, Hepes pH 7.2
[4] = molecular target: T3, SHP2^S502P (Homo sapiens, UniProt Q06124, S502P); experiment: Basal DiFMUP dephosphorylation kinetics, S502P; format: biochemical; details: substrate DiFMUP, basal (no peptide); 0.025 nM enzyme, Hepes pH 7.2
T3 sequence (Q06124 1-525 S502P): T1 sequence (Q06124 1-525) with S502P

[5] = molecular target: T2, SHP2^E76Q; experiment: Phosphopeptide activation of SHP2; format: biochemical
[6] = molecular target: T1, SHP2^WT; experiment: Phosphopeptide activation of SHP2; format: biochemical
[7] = molecular target: T3, SHP2^S502P; experiment: Phosphopeptide activation of SHP2; format: biochemical
[8] = tested on: SHP2 (both SH2 domains); details: cited from earlier work

Molecule: Cc1cc(=O)oc2c(F)c(OP(=O)(O)O)c(F)cc12 [DiFMUP, 6,8-Difluoro-4-Methylumbelliferyl Phosphate]
- kcat/KM [1]: 2100 M⁻¹ s⁻¹
- kcat/KM [2]: 71000 M⁻¹ s⁻¹ and 71200 M⁻¹ s⁻¹
- kcat/KM [3]: 298000 M⁻¹ s⁻¹
- kcat/KM [4]: 77000 M⁻¹ s⁻¹ and 76500 M⁻¹ s⁻¹

Molecule: CC[C@H](C)[C@H](NC(=O)[C@H](Cc1ccc(OP(=O)(O)O)cc1)NC(=O)[C@H](CC(N)=O)NC(=O)[C@H](CC(C)C)NC(=O)[C@@H](N)CO)C(=O)N[C@@H](CC(=O)O)C(=O)N[C@@H](CC(C)C)C(=O)N[C@@H](CC(=O)O)C(=O)N[C@@H](CC(C)C)C(=O)N[C@H](C(=O)N[C@@H](CCCCN)C(=O)O)C(C)C [PY1172] (H-SLN[pY]IDLDLVK-OH)
- EC50 [5]: 0.35 µM
- EC50 [6]: 10 µM
- EC50 [7]: 0.83 µM

- sensitivity to bisphosphorylated peptide ([5]; relative to SHP2^WT): greatest sensitivity
- extent of activation ([6]; double-phosphorylated peptide, low-micromolar concentrations): complete activation
- sensitivity to bisphosphorylated peptide ([7]; relative to SHP2^WT): greatest sensitivity
Molecule: SLNY(p)IDLDLVK-dPEG8-LSTY(p)ASINFQK [PY1172-PEG-PY1222]
- SH2 domain occupancy and activation [8]: occupies both SH2 domains and induces full activation of the phosphatase
